Results from patent US11541057B2, “Thienopyrimidinone NMDA receptor modulators and uses thereof” (Cadent Therapeutics, Inc., priority 2015, dated 2023).

Molecular target: T1, NMDA receptor GRIN1/GRIN2B (NR2B) expressed in HEK293 cells (Homo sapiens, UniProt Q13224)
T1 construct: host or cells: HEK293
Assay: Reversal of Ro 25-6981-mediated suppression of the Ca2+ response (fluo-8 fluorescence, FDSS) in HEK293 cells expressing GRIN1 and GRIN2B
Format: cell-based
Details: % reversal=100*(R−Rneg)/(Rpos−Rneg) of Ro 25-6981 suppression of co-agonist (glutamate/glycine) Ca2+ response, 10 min pre-incubation, compound concentration not given
Procedure, shortened: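 HEK293 with stable GRIN1 and tetracycline-induced GRIN2B, loaded with fluo-8 and preincubated 10 min with compound plus Ro 25-6981 and 5,7-dichlorokynurenic acid. Ca2+ response recorded 2 min after glutamate/glycine/CaCl2 co-agonist addition. % reversal = 100*(R−Rneg)/(Rpos−Rneg) from end fluorescence ratios.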

T1 sequence (Q13224 27-1484, other chains not shown): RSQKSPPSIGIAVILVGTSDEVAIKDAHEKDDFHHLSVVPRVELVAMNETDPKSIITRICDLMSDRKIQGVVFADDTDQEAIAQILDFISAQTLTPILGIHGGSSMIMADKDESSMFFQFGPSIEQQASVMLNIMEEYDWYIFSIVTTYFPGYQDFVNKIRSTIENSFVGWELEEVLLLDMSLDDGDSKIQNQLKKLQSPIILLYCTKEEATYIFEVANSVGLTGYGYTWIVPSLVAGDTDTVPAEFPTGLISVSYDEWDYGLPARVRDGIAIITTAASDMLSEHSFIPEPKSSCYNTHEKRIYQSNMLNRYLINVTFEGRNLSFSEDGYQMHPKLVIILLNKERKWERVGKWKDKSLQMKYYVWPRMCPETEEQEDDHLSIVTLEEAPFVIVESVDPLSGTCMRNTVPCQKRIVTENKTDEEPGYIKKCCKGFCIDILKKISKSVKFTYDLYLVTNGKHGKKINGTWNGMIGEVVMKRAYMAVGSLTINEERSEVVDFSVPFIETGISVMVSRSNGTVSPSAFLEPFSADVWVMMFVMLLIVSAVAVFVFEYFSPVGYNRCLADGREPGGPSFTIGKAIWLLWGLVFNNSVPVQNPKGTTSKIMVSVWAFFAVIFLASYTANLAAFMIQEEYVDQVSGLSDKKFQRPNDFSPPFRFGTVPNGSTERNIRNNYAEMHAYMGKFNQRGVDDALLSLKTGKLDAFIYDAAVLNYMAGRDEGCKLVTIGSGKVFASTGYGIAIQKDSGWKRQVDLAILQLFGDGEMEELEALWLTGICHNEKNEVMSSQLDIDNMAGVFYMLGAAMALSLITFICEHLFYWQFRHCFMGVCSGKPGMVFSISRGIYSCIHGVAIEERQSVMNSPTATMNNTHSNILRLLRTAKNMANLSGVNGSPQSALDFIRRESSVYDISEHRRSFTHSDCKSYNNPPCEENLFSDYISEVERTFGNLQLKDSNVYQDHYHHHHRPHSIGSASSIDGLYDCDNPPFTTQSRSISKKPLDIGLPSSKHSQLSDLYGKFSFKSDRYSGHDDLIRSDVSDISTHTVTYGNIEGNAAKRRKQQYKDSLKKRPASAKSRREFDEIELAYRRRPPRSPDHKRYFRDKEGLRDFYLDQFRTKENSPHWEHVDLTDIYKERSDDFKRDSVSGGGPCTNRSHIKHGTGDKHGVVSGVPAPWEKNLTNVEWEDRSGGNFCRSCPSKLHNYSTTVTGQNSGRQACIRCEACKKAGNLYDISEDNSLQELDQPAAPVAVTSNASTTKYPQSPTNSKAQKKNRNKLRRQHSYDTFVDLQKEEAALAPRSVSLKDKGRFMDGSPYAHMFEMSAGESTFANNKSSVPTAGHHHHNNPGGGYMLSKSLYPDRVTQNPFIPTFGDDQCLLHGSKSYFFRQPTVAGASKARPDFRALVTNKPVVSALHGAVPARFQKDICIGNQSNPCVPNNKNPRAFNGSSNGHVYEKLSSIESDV

| Response Recovered (%) | SMILES |
| --- | --- |
| 32 | O=C(On1cnc2scc(-c3ccc(Cl)c(F)c3)c2c1=O)N1CCCC1 [Example 87, 5-(4-chloro-3-fluorophenyl)-4-oxo-3H,4H-thieno[2,3-d]pyrimidin-3-yl pyrrolidine-1-carboxylate] |
| 29 | O=C(Nn1cnc2scc(-c3ccc(Cl)c(C(F)(F)F)c3)c2c1=O)N1CCCC1 [Example 89, N-(5-(4-chloro-3-(trifluoromethyl)phenyl)-4-oxothieno[2,3-d]pyrimidin-3(4H)-yl)pyrrolidine-1-carboxamide] |
| 10 | O=C(Nn1cnc2scc(-c3ccc(F)c(Cl)c3)c2c1=O)N1CCCC1 [Example 90] |
| 2 | O=C(CNn1cnc2scc(-c3ccc(Cl)c(C(F)(F)F)c3)c2c1=O)N1CCCC1 [Example 91, 5-(4-chloro-3-(trifluoromethyl)phenyl)-3-((2-oxo-2-(pyrrolidin-1-yl)ethyl)amino)thieno[2,3-d]pyrimidin-4(3H)-one] |
| 37 | O=C(COn1cnc2scc(-c3ccc(Cl)c(C(F)(F)F)c3)c2c1=O)N1CCCC1 [Example 92, 5-(4-chloro-3-(trifluoromethyl)phenyl)-3-(2-oxo-2-(pyrrolidin-1-yl)ethoxy)thieno[2,3-d]pyrimidin-4(3H)-one] |
| 18 | O=c1c2c(-c3ccc(Cl)c(C(F)(F)F)c3)csc2ncn1/N=C/N1CCCC1 [Example 94, (E)-5-(4-chloro-3-(trifluoromethyl)phenyl)-3-((pyrrolidin-1-ylmethylene)amino)thieno[2,3-d]pyrimidin-4(3H)-one] |
| 21 | O=C(Nn1cnc2scc(-c3ccc(Cl)c(C(F)(F)F)c3)c2c1=O)C1CCCC1 [Example 95, N-(5-(4-chloro-3-(trifluoromethyl)phenyl)-4-oxothieno[2,3-d]pyrimidin-3(4H)-yl)cyclopentanecarboxamide] |
| 14 | CN(C)/C=N/n1cnc2scc(-c3ccc(Cl)c(C(F)(F)F)c3)c2c1=O [Example 100, (E)-N′-(5-(4-chloro-3-(trifluoromethyl)phenyl)-4-oxothieno[2,3-d]pyrimidin-3(4H)-yl)-N,N-dimethylformimidamide] |
| 6 | O=C(CCn1cnc2scc(-c3ccc(Cl)c(C(F)(F)F)c3)c2c1=O)N1CCCC1 [Example 101, 5-(4-chloro-3-(trifluoromethyl)phenyl)-3-(3-oxo-3-(pyrrolidin-1-yl)propyl)thieno[2,3-d]pyrimidin-4(3H)-one] |
| 2 | O=C(CCn1cnc2scc(-c3ccc(Cl)c(C(F)(F)F)c3)c2c1=O)N1CCC(F)C1 (stereo not shown) [Example 102, 5-[4-chloro-3-(trifluoromethyl)phenyl]-3-[3-(3-fluoropyrrolidin-1-yl)-3-oxopropyl]-3H,4H-thieno[2,3-d]pyrimidin-4-one] |
| −2 | O=C(CCn1cnc2scc(-c3ccc(Cl)c(C(F)(F)F)c3)c2c1=O)N1CCCC1C(F)(F)F (stereo not shown) [Example 103, 5-[4-chloro-3-(trifluoromethyl)phenyl]-3-{3-oxo-3-[2-(trifluoromethyl)pyrrolidin-1-yl]propyl}-3H,4H-thieno[2,3-d]pyrimidin-4-one] |

The remaining lines, values behind:

| SMILES | Response Recovered (%) |
| --- | --- |
| O=C(On1cnc2scc(-c3ccc(F)c(Cl)c3)c2c1=O)N1CCC(F)C1 (stereo not shown) [Example 88, 5-(3-chloro-4-fluorophenyl)-4-oxo-3H,4H-thieno[2,3-d]pyrimidin-3-yl 3-fluoropyrrolidine-1-carboxylate] | 83 |
| O=C(COn1cnc2scc(-c3ccc(F)c(Cl)c3)c2c1=O)N1CCCC1 [Example 93, 5-(3-chloro-4-fluorophenyl)-3-[2-oxo-2-(pyrrolidin-1-yl)ethoxy]-3H,4H-thieno┌2,3-d┐pyrimidin-4-one] | −1 |
| O=C(Nn1cnc2scc(-c3ccc(F)c(Cl)c3)c2c1=O)C1CCCC1 [Example 96, N-[5-(3-chloro-4-fluorophenyl)-4-oxo-3H,4H-thieno[2,3-d]pyrimidin-3-yl]cyclopentanecarboxamide] | 27 |
| CCOC(=O)Cn1c(C)nc2scc(-c3ccc(Cl)cc3)c2c1=O [Example 97, Ethyl 2-(5-(4-chlorophenyl)-2-methyl-4-oxothieno[2,3-d]pyrimidin-3(4H)-yl)acetate] | 2 |
| Cc1nc2scc(-c3ccc(Cl)cc3)c2c(=O)n1CC(=O)N1CCCC1 [Example 98, 5-(4-chlorophenyl)-2-methyl-3-(2-oxo-2-(pyrrolidin-1-yl)ethyl)thieno[2,3-d]pyrimidin-4(3H)-one] | 6 |
| Cc1nc2scc(-c3ccc(Cl)cc3)c2c(=O)n1CC(=O)N1CCCC1C(F)(F)F (stereo not shown) [Example 99, 5-(4-chlorophenyl)-2-methyl-3-{2-oxo-2-[2-(trifluoromethyl)pyrrolidin-1-yl]ethyl}-3H,4H-thieno[2,3-d]pyrimidin-4-one] | 3 |
| O=C(Cn1c(C(F)(F)F)nc2scc(-c3ccc(Cl)cc3)c2c1=O)N1CCCC1C(F)(F)F (stereo not shown) [Example 104, 5-(4-chlorophenyl)-3-(2-oxo-2-(2-(trifluoromethyl)pyrrolidin-1-yl)ethyl)-2-(trifluoromethyl)thieno[2,3-d]pyrimidin-4(3H)-one] | −2 |
| O=C(Cn1c(C(F)(F)F)nc2scc(-c3ccc(Cl)cc3)c2c1=O)N1CCCC1 [Example 105, 5-(4-chlorophenyl)-3-[2-oxo-2-(pyrrolidin-1-yl)ethyl]-2-(trifluoromethyl)-3H,4H-thieno[2,3-d]pyrimidin-4-one] | −1 |
